In patent US4265901A, “2-Oxybenzimidazoline compounds” (priority 1979, dated 1981):
Values joined by “and” are separate entries in the source; they are usually repeats but may differ in a detail not shown here. Equal values may be shown once. Where a name gives a salt, the structure may show the parent alone.

Experiments:
Corn [1] = experiment: Post-emergence herbicide test, corn; assay type: in vivo, Zea mays
Description: (§1) In this evaluation, each compound to be tested was dissolved in a 1:1 mixture of acetone and ethanol containing a small amount of Toximul R and Toximul S (each a sulfonate/nonionic blend produced by Stepan Chemical Company, Northfield, Illinois). The solution was then diluted with deionized water to a composition of the following concentrations, by weight: Plant species used as indicators of herbicidal activity were planted in galvanized pans (flats) 31.5 cm. long, 21.5 cm. wide, and 8.0 cm. deep. The bottoms of the flats had holes to facilitate drainage. The soil used was a 1:1 ratio by volume of masonry sand and shredded top soil. Seeds of seven indicator species were planted in rows perpendicular to the long axis of the flat, one species per row, and covered with 0.5 to 1.0 cm. of sterilized soil. Indicator species and approximate number of seeds planted were as follows: Flats that were to receive preemergence treatments were planted one day prior to, or on the same day treatments were applied. Flats that were to receive postemergence treatments were planted 9 days prior to treatment and placed in a growth chamber until the day of treatment. In the growth chamber, flats received 12 to 18 hours of light per day and were subject to temperatures of 75° to 85° F. The formulated test compound was applied uniformly to the indicator species with a modified DeVilbiss atomizer using air pressure of 3 to 5 psi. Each flat received 12.5 ml. of spray solution which was equal to 200 gallons/acre total spray volume. Plants were maintained in a greenhouse after treatment. Herbicidal effects of chemicals were evaluated by two injury rating systems 18 days after preemergence applications and 14 days after postemergence applications. The degree of plant injury was based on a 1 to 5 scale and a single numerical rating was assigned to each test species as follows: […]

Zinnia [2] = experiment: Post-emergence herbicide test, zinnia; assay type: in vivo, Zinnia elegans
Description: as §1

Velvetleaf [3] = experiment: Pre-emergence herbicide test, velvetleaf; assay type: in vivo, Abutilon theophrasti
Description: as §1

Mexican bean beetle = Mexican bean beetle test; assay type: in vivo, Epilachna varivestis; details: 4 days; on Mexican Bean Beetle Stom. (mortality rating): ranges in brackets are in %
Description: (§2) In this evaluation, each compound to be tested was dissolved in a 1:1 mixture of acetone and ethanol containing a small amount of Toximul R and Toximul S (each a sulfonate/nonionic blend produced by Stephan Chemical Company, Northfield, Ill.). The solution was then diluted with distilled water to a concentration of 1000 ppm of test compound.
This test was conducted with second instar larvae of Epilachna varivestis Mulsant, order Coleoptera, family Coccinellidae. Larvae for the test, of uniform size and not molting, were picked by hand from flats of Bountiful snap beans on which they were grown and were placed in 100×20 mm plastic petri dishes for testing. Five larvae were used per replicate.
Two 4- to 6-day-old Bountiful green bean primry leaves (approximately 6 sq. in. of leaf surface) were used for each replicate. Two replicates were run per compound.
[…] […] The nozzle of the atomizer was held 12 to 18 inches from the leaves and was supplied with 5-6 psi air pressure. The atomizer was rinsed with acetone after each compound was sprayed. The plants were allowed to dry. The leaves were then cut from the plants and placed in the petri dishes containing the bean beetle larvae. A small wad of wet cellucotton was added to each dish to help prevent the leaves from wilting.
After 4 days, a mortality count was made and the amount of feeding was noted. Moribund larvae were counted as dead.

Large Crabgrass = experiment: Pre-emergence herbicide test, large crabgrass; assay type: in vivo, Digitaria sanguinalis
Description: as §1

Pigweed = experiment: Post-emergence herbicide test, pigweed; assay type: in vivo, Amaranthus retroflexus
Description: as §1

Morning-glory [4] = experiment: Post-emergence herbicide test, morningglory; assay type: in vivo, Ipomoea purpurea
Description: as §1

Zinnia [5] = experiment: Pre-emergence herbicide test, zinnia; assay type: in vivo, Zinnia elegans
Description: as §1

Corn [6] = experiment: Pre-emergence herbicide test, corn; assay type: in vivo, Zea mays
Description: as §1

two-spotted spider mite = experiment: Two-spotted spider mite test; assay type: in vivo, Tetranychus urticae; details: 4 days; further: ranges in brackets are in %
Description: as §2, with “compound. Lesser concentration formulations were made by diluting a portion of the 1000 ppm solution with distilled water containing 225 mg. of Toximul R and 125 mg. of Toximul S per liter.” for “compound.”
This test was conducted with nymphs and adults of Tetranychus urticae (Koch), Order Acarina, Family Tetranychidae.
This test was run using blue hubbard squash plants which were grown in vermiculite (insulation grade No. 1) in 5 oz. plastic Dixie cups. One cotyledon is removed from each plant to remain in the cups. On retests two plants were left in each cup and on regular initial tests one plant was left in each cup. Each cotyledon is infested by placing a mite infested trifoliate bean leaf on if. Infected plants in cups were held for one day, then sprayed to wetting with formulations containing 1000 ppm of the test compound, using the DeVilbiss atomizer with 5-6 psi air pressure. Retests were run at 100 ppm. Tests were read four days after treatment. Two unsprayed but infested plants were held as a control. Two infested plants were sprayed with a formulation containing 750 ppm of galecron [N'-(4-chloro-o-tolyl)-N,N-dimethylformamidine monohydrochloride] as a reference standard.

Morning-glory [7] = experiment: Pre-emergence herbicide test, morningglory; assay type: in vivo, Ipomoea purpurea
Description: as §1

Velvetleaf [8] = experiment: Post-emergence herbicide test, velvetleaf; assay type: in vivo, Abutilon theophrasti
Description: as §1

Foxtail = experiment: Pre-emergence herbicide test, foxtail; assay type: in vivo, Setaria italica
Description: as §1

Question: With `O=[N+]([O-])c1cc(C(F)(F)F)cc2c1NC(O)(C(F)(F)C(F)F)N2O` (centres unmarked) [Example 12, 1,2-Dihydroxy-2-(1,1,2,2-Tetrafluoroethyl)-4-Nitro-6-(Trifluoromethyl)Benzimidazoline] as the molecule, how does the plant injury rating (Corn [1]; 1/4 lb/A) read?
Answer: 1 (no injury)

Question: And the plant injury rating (Corn [1]; 1/8 lb/A)?
Answer: 1 (no injury)

Question: And the plant injury rating (Corn [1]; 1 lb/A)?
Answer: 1 (no injury)

Question: And the plant injury rating (Corn [1]; 2 lb/A)?
Answer: 2B

Question: And the plant injury rating (Corn [1]; 8 lb/A)?
Answer: 1 (no injury)

Question: What about the plant injury rating (Zinnia [2]; 1/4 lb/A) of the same molecule?
Answer: 3B

Question: And the plant injury rating (Zinnia [2]; 1/8 lb/A)?
Answer: 2B

Question: What about the plant injury rating (Zinnia [2]; 1 lb/A) of the same molecule?
Answer: 5D

Question: And the plant injury rating (Zinnia [2]; 2 lb/A)?
Answer: 5D

Question: And the plant injury rating (Zinnia [2]; 8 lb/A)?
Answer: 4BS

Question: What about the plant injury rating (Velvetleaf [3]; 1/2 lb/A) of the same molecule?
Answer: 1 (no injury)

Question: What about the plant injury rating (Velvetleaf [3]; 1 lb/A) of the same molecule?
Answer: 1 (no injury)

Question: And the plant injury rating (Velvetleaf [3]; 2 lb/A)?
Answer: 1 (no injury)

Question: And the plant injury rating (Velvetleaf [3]; 8 lb/A)?
Answer: 3BS

Question: And the “Mexican Bean Beetle Stom. (mortality rating)” value (Mexican bean beetle; 1000 ppm)?
Answer: 3 (100)

Question: And the plant injury rating (Large Crabgrass; 1/2 lb/A)?
Answer: 1 (no injury)

Question: And the plant injury rating (Large Crabgrass; 1 lb/A)?
Answer: 2S

Question: What about the plant injury rating (Large Crabgrass; 2 lb/A) of the same molecule?
Answer: 4SB

Question: What about the plant injury rating (Large Crabgrass; 8 lb/A) of the same molecule?
Answer: 4RS

Question: What about the plant injury rating (Pigweed; 1/4 lb/A) of the same molecule?
Answer: 3BS

Question: What about the plant injury rating (Pigweed; 1/8 lb/A) of the same molecule?
Answer: 3BS

Question: And the plant injury rating (Pigweed; 1 lb/A)?
Answer: 5D

Question: What about the plant injury rating (Pigweed; 2 lb/A) of the same molecule?
Answer: 5D

Question: And the plant injury rating (Pigweed; 8 lb/A)?
Answer: 5D

Question: And the plant injury rating (Morning-glory [4]; 1/4 lb/A)?
Answer: 1 (no injury)

Question: And the plant injury rating (Morning-glory [4]; 1/8 lb/A)?
Answer: 1 (no injury)

Question: What about the plant injury rating (Morning-glory [4]; 1 lb/A) of the same molecule?
Answer: 3BS

Question: What about the plant injury rating (Morning-glory [4]; 2 lb/A) of the same molecule?
Answer: 3BS

Question: And the plant injury rating (Morning-glory [4]; 8 lb/A)?
Answer: 2B

Question: And the plant injury rating (Zinnia [5]; 1/2 lb/A)?
Answer: 1 (no injury)

Question: And the plant injury rating (Zinnia [5]; 1 lb/A)?
Answer: 1 (no injury)

Question: And the plant injury rating (Zinnia [5]; 2 lb/A)?
Answer: 1 (no injury)

Question: What about the plant injury rating (Zinnia [5]; 8 lb/A) of the same molecule?
Answer: 4RS

Question: And the plant injury rating (Corn [6]; 1/2 lb/A)?
Answer: 1 (no injury)

Question: And the plant injury rating (Corn [6]; 1 lb/A)?
Answer: 1 (no injury)

Question: And the plant injury rating (Corn [6]; 2 lb/A)?
Answer: 1 (no injury)

Question: What about the plant injury rating (Corn [6]; 8 lb/A) of the same molecule?
Answer: 1 (no injury)

Question: What about the “2-Sp. Spider Mite Cont. (mortality rating)” value (two-spotted spider mite; 1000 ppm) of the same molecule?
Answer: 3 (100)

Question: What about the plant injury rating (Morning-glory [7]; 1/2 lb/A) of the same molecule?
Answer: 1 (no injury)

Question: What about the plant injury rating (Morning-glory [7]; 1 lb/A) of the same molecule?
Answer: 1 (no injury)

Question: And the plant injury rating (Morning-glory [7]; 2 lb/A)?
Answer: 1 (no injury)

Question: What about the plant injury rating (Morning-glory [7]; 8 lb/A) of the same molecule?
Answer: 3BS

Question: What about the plant injury rating (Velvetleaf [8]; 1/4 lb/A) of the same molecule?
Answer: 2B

Question: What about the plant injury rating (Velvetleaf [8]; 1/8 lb/A) of the same molecule?
Answer: 2SB

Question: And the plant injury rating (Velvetleaf [8]; 1 lb/A)?
Answer: 4BS

Question: What about the plant injury rating (Velvetleaf [8]; 2 lb/A) of the same molecule?
Answer: 4BS

Question: And the plant injury rating (Velvetleaf [8]; 8 lb/A)?
Answer: 4BS

Question: What about the plant injury rating (Foxtail; 1/2 lb/A) of the same molecule?
Answer: 1 (no injury)

Question: And the plant injury rating (Foxtail; 1 lb/A)?
Answer: 1 (no injury)

Question: And the plant injury rating (Foxtail; 2 lb/A)?
Answer: 1 (no injury)

Question: And the plant injury rating (Foxtail; 8 lb/A)?
Answer: 2S

Question: Which results are given for `O=[N+]([O-])c1cc(C(F)(F)F)cc2c1NC(O)(C(F)(F)C(F)F)N2` (centres unmarked) [Example 2, 2-Hydroxy-2-(1,1,2,2-Tetrafluoroethyl)-4-Nitro-6-(Trifluoromethyl)Benzimidazoline, Sodium Salt, and Hydrate]?
Answer: plant injury rating (Corn [1]; 1/2 lb/A): 1 (no injury); plant injury rating (Corn [1]; 1/4 lb/A): 1 (no injury); plant injury rating (Corn [1]; 2 lb/A): 3BS; plant injury rating (Corn [1]; 4 lb/A): 3BS; plant injury rating (Corn [1]; 8 lb/A): 5D; plant injury rating (Zinnia [2]; 1/2 lb/A): 3BS; plant injury rating (Zinnia [2]; 1/4 lb/A): 3BS; plant injury rating (Zinnia [2]; 2 lb/A): 5D; plant injury rating (Zinnia [2]; 4 lb/A): 5D; plant injury rating (Zinnia [2]; 8 lb/A): 5D; plant injury rating (Velvetleaf [3]; 1/2 lb/A): 1 (no injury); plant injury rating (Velvetleaf [3]; 1/4 lb/A): 1 (no injury); plant injury rating (Velvetleaf [3]; 1 lb/A): 1 (no injury); plant injury rating (Velvetleaf [3]; 2 lb/A): 2S; plant injury rating (Velvetleaf [3]; 4 lb/A): 4BS; plant injury rating (Velvetleaf [3]; 8 lb/A): 5D; Mexican Bean Beetle Feed. (feeding rating) (Mexican bean beetle; 100 ppm): 0 (none of the leaves eaten); Mexican Bean Beetle Stom. (mortality rating) (Mexican bean beetle; 100 ppm): 3 (100); Mexican Bean Beetle Stom. (mortality rating) (Mexican bean beetle; 1000 ppm): 3 (100); plant injury rating (Large Crabgrass; 1/2 lb/A): 1 (no injury); plant injury rating (Large Crabgrass; 1/4 lb/A): 1 (no injury); plant injury rating (Large Crabgrass; 1 lb/A, Hydrate): 3S and 2S; plant injury rating (Large Crabgrass; 2 lb/A): 4RS; plant injury rating (Large Crabgrass; 4 lb/A): 4RS; plant injury rating (Large Crabgrass; 8 lb/A): 5N; plant injury rating (Pigweed; 1/2 lb/A): 4BS; plant injury rating (Pigweed; 1/4 lb/A): 3BS; plant injury rating (Pigweed; 1 lb/A): 5D; plant injury rating (Pigweed; 2 lb/A): 5D; plant injury rating (Pigweed; 4 lb/A): 5D; plant injury rating (Pigweed; 8 lb/A): 5D; plant injury rating (Morning-glory [4]; 1/2 lb/A): 2B; plant injury rating (Morning-glory [4]; 1/4 lb/A): 2B; plant injury rating (Morning-glory [4]; 2 lb/A): 3BS; plant injury rating (Morning-glory [4]; 4 lb/A): 4BS; plant injury rating (Morning-glory [4]; 8 lb/A): 5D; plant injury rating (Zinnia [5]; 1/2 lb/A): 1 (no injury); plant injury rating (Zinnia [5]; 1/4 lb/A): 1 (no injury); plant injury rating (Zinnia [5]; 1 lb/A): 1 (no injury); plant injury rating (Zinnia [5]; 2 lb/A): 2S; plant injury rating (Zinnia [5]; 4 lb/A): 4BS; plant injury rating (Zinnia [5]; 8 lb/A): 5D; plant injury rating (Corn [6]; 1/2 lb/A): 1 (no injury); plant injury rating (Corn [6]; 1/4 lb/A): 1 (no injury); plant injury rating (Corn [6]; 1 lb/A): 1 (no injury); plant injury rating (Corn [6]; 2 lb/A): 1 (no injury); plant injury rating (Corn [6]; 4 lb/A): 1 (no injury); plant injury rating (Corn [6]; 8 lb/A): 3SB; 2-Sp. Spider Mite Cont. (mortality rating) (two-spotted spider mite; 100 ppm): 3 (100); 2-Sp. Spider Mite Cont. (mortality rating) (two-spotted spider mite; 1000 ppm): 3 (100); plant injury rating (Morning-glory [7]; 1/2 lb/A): 1 (no injury); plant injury rating (Morning-glory [7]; 1/4 lb/A): 1 (no injury); plant injury rating (Morning-glory [7]; 1 lb/A): 1 (no injury); plant injury rating (Morning-glory [7]; 2 lb/A): 2B; plant injury rating (Morning-glory [7]; 4 lb/A): 4BS; plant injury rating (Morning-glory [7]; 8 lb/A): 5N; plant injury rating (Velvetleaf [8]; 1/2 lb/A): 2SB; plant injury rating (Velvetleaf [8]; 1/4 lb/A): 2B; plant injury rating (Velvetleaf [8]; 1 lb/A, Hydrate): 3BS and 4BS; plant injury rating (Velvetleaf [8]; 2 lb/A): 5D; plant injury rating (Velvetleaf [8]; 4 lb/A): 5D; plant injury rating (Velvetleaf [8]; 8 lb/A): 5D; plant injury rating (Foxtail; 1/2 lb/A): 1 (no injury); plant injury rating (Foxtail; 1/4 lb/A): 1 (no injury); plant injury rating (Foxtail; 1 lb/A): 1 (no injury); plant injury rating (Foxtail; 2 lb/A): 2S; plant injury rating (Foxtail; 4 lb/A): 2S; plant injury rating (Foxtail; 8 lb/A): 5N
